Laboratory results: patent US20210254272A1, “TEXTILES HAVING ANTIMICROBIAL PROPERTIES” (Livinguard AG, priority 2015, published 2021)

Key:
[1] = Leaching: 10 grams fabric in 100 milliliters distilled water, 7 days, GC-MS; format: physicochemical
Procedure: To test for a potential leaching of the antimicrobial agents fixed to the textile material, the following test was performed. A test fabric of polyester 65%/cotton 35% with 210 g/m2 was treated with polyhexamethylenebiguanide (PHMB) 0.5%, silver chloride 0.075%, octadecylaminomethyl trihydroxysilylpropyl ammonium chloride (organosilane) 0.4%, and propiconazole 0.5%
The treated textile material was put into distilled water at a ratio of 1:10. Specifically, a fabric of 10 grams was soaked in 100 milliliters of distilled water. The fabric was incubated in the water for 7 days at room temperature, i.e. between 21 and 25° C.
Following said incubation time, the fabric was removed from the water and the exposed water was tested for the presence of the above five active ingredients using gas chromatography-mass spectrometry (GC-MS).

E. coli (ATCC 25922) = test: AATCC Test Method 100-2012 antibacterial activity of the treated textile, after 25 washes and 12 abrasion cycles, contact time 60 minutes; format: cell-based; settings: for Log reduction of antimicrobial performance: 1% o.w.f; for Log reduction of antimicrobial performance in 100 GSM Polyester fabric / Log reduction of antimicrobial performance in 100 GSM cotton fabric / Log reduction of antimicrobial performance in 300 GSM Polyester fabric / Log reduction of antimicrobial performance in 300 GSM cotton fabric / Performance Test-Log reduction of antimicrobial performance: 2 min; for Performance Test-Log reduction of antimicrobial performance: pad process, single agent 5 gm/lit
Procedure: The antibacterial activity of the textile was tested in accordance with AATCC Test Method 100-2012. Prior to the test, the fabric was cut into coupons of 2×4 inches and washed separately 25 times, and exposed to 12 abrasion cycles, as per US EPA protocol 90072PA4 (described further below). The tests were made against E. coli (ATCC 25922). Contact time was 60 minutes, after inoculating with 10^8 CFU per coupon.

[2] = exhaust 80° C., 60 min, curing 180° C., dosage 0.1% o.w.f
[3] = exhaust 80° C., 60 min, curing 180° C., dosage 0.2% o.w.f
[4] = exhaust 80° C., 60 min, curing 180° C., dosage 0.5% o.w.f
[5] = exhaust 80° C., 60 min, curing 180° C., dosage 0.8% o.w.f
[6] = exhaust 80° C., 60 min, curing 180° C., dosage 1.0% o.w.f

CCCCCCCCCCCCCCCCCC[N+](C)(C)CCC[Si](OC)(OC)OC [Organosilane, dimethyloctadecyl[3-(trimethoxysilyl)propyl] ammonium chloride]
Extracted water Conc, ppm [1]: BDL (BDL-below detection limit Detection limit: 1 parts per million (ppm))
Log reduction of antimicrobial performance of each active ingredient (E. coli (ATCC 25922); exhaust 60° C., solution dosage 1% o.w.f, process time 60 min): 1.5 Log
Log reduction of antimicrobial performance of each active ingredient (E. coli (ATCC 25922); exhaust 60° C., solution dosage 1% o.w.f, process time 90 min): 1.7 Log
Log reduction of antimicrobial performance of each active ingredient (E. coli (ATCC 25922); exhaust 60° C., solution dosage 1% o.w.f, process time 120 min): 1.8 Log
Log reduction of antimicrobial performance of each active ingredient (E. coli (ATCC 25922); exhaust 60° C., solution dosage 1% o.w.f, process time 180 min): 1.8 Log
Log reduction of antimicrobial performance of each active ingredient (E. coli (ATCC 25922); exhaust 60° C., solution dosage 1% o.w.f, process time 240 min): 1.73 Log
Log reduction of antimicrobial performance (E. coli (ATCC 25922); exhaust 80° C., 60 min, curing 170° C., curing dwell time 0.5 min): 0.3 Log
Log reduction of antimicrobial performance (E. coli (ATCC 25922); exhaust 80° C., 60 min, curing 170° C., curing dwell time 1.0 min): 0.5 Log
Log reduction of antimicrobial performance (E. coli (ATCC 25922); exhaust 80° C., 60 min, curing 170° C., curing dwell time 1.5 min): 0.6 Log
Log reduction of antimicrobial performance (E. coli (ATCC 25922); exhaust 80° C., 60 min, curing 170° C., curing dwell time 2.0 min): 1.2 Log
Log reduction of antimicrobial performance (E. coli (ATCC 25922); exhaust 80° C., 60 min, curing 170° C., curing dwell time 2.5 min): 1.2 Log
Log reduction of antimicrobial performance (E. coli (ATCC 25922); exhaust 80° C., 60 min, curing 170° C., curing dwell time 3.0 min): 0.75 Log
Log reduction of antimicrobial performance (E. coli (ATCC 25922); exhaust 80° C., 60 min, curing 180° C., curing dwell time 0.5 min): 1.5 Log
Log reduction of antimicrobial performance (E. coli (ATCC 25922); exhaust 80° C., 60 min, curing 180° C., curing dwell time 1.0 min): 1.7 Log
Log reduction of antimicrobial performance (E. coli (ATCC 25922); exhaust 80° C., 60 min, curing 180° C., curing dwell time 1.5 min): 1.8 Log
Log reduction of antimicrobial performance (E. coli (ATCC 25922); exhaust 80° C., 60 min, curing 180° C., curing dwell time 2.0 min): 3.9 Log
Log reduction of antimicrobial performance (E. coli (ATCC 25922); exhaust 80° C., 60 min, curing 180° C., curing dwell time 2.5 min): 3.8 Log
Log reduction of antimicrobial performance (E. coli (ATCC 25922); exhaust 80° C., 60 min, curing 180° C., curing dwell time 3.0 min): 3.7 Log
Log reduction of antimicrobial performance (E. coli (ATCC 25922); exhaust 80° C., 60 min, curing 190° C., curing dwell time 0.5 min): 0.6 Log
Log reduction of antimicrobial performance (E. coli (ATCC 25922); exhaust 80° C., 60 min, curing 190° C., curing dwell time 1.0 min): 1.1 Log
Log reduction of antimicrobial performance (E. coli (ATCC 25922); exhaust 80° C., 60 min, curing 190° C., curing dwell time 1.5 min): 1.5 Log
Log reduction of antimicrobial performance (E. coli (ATCC 25922); exhaust 80° C., 60 min, curing 190° C., curing dwell time 2.0 min): 2.55 Log
Log reduction of antimicrobial performance (E. coli (ATCC 25922); exhaust 80° C., 60 min, curing 190° C., curing dwell time 2.5 min): 2.46 Log
Log reduction of antimicrobial performance (E. coli (ATCC 25922); exhaust 80° C., 60 min, curing 190° C., curing dwell time 3.0 min): 1.2 Log
Log reduction of antimicrobial performance (E. coli (ATCC 25922); exhaust 80° C., 60 min, curing temperature 100 ° C.): 0.17 Log
Log reduction of antimicrobial performance (E. coli (ATCC 25922); exhaust 80° C., 60 min, curing temperature 120 ° C.): 0.56 Log
Log reduction of antimicrobial performance (E. coli (ATCC 25922); exhaust 80° C., 60 min, curing temperature 140 ° C.): 0.97 Log
Log reduction of antimicrobial performance (E. coli (ATCC 25922); exhaust 80° C., 60 min, curing temperature 160 ° C.): 1.11 Log
Log reduction of antimicrobial performance (E. coli (ATCC 25922); exhaust 80° C., 60 min, curing temperature 165 ° C.): 1.16 Log
Log reduction of antimicrobial performance (E. coli (ATCC 25922); exhaust 80° C., 60 min, curing temperature 170 ° C.): 1.26 Log
Log reduction of antimicrobial performance (E. coli (ATCC 25922); exhaust 80° C., 60 min, curing temperature 175 ° C.): 2.16 Log
Log reduction of antimicrobial performance (E. coli (ATCC 25922); exhaust 80° C., 60 min, curing temperature 180 ° C.): 2.56 Log
Log reduction of antimicrobial performance (E. coli (ATCC 25922); exhaust 80° C., 60 min, curing temperature 185 ° C.): 2.59 Log
Log reduction of antimicrobial performance (E. coli (ATCC 25922); exhaust 80° C., 60 min, curing temperature 190 ° C.): 2.61 Log
Log reduction of antimicrobial performance (E. coli (ATCC 25922); exhaust 80° C., 60 min, curing temperature 195 ° C.): 2.63 Log
Log reduction of antimicrobial performance in 100 GSM Polyester fabric (E. coli (ATCC 25922); [2]): 0.73 Log
Log reduction of antimicrobial performance in 100 GSM cotton fabric (E. coli (ATCC 25922); [2]): 0.81 Log
Log reduction of antimicrobial performance in 300 GSM Polyester fabric (E. coli (ATCC 25922); [2]): 0.75 Log
Log reduction of antimicrobial performance in 300 GSM cotton fabric (E. coli (ATCC 25922); [2]): 0.82 Log
Log reduction of antimicrobial performance in 100 GSM Polyester fabric (E. coli (ATCC 25922); [3]): 1.67 Log
Log reduction of antimicrobial performance in 100 GSM cotton fabric (E. coli (ATCC 25922); [3]): 1.67 Log
Log reduction of antimicrobial performance in 300 GSM Polyester fabric (E. coli (ATCC 25922); [3]): 1.65 Log
Log reduction of antimicrobial performance in 300 GSM cotton fabric (E. coli (ATCC 25922); [3]): 1.68 Log
Log reduction of antimicrobial performance in 100 GSM Polyester fabric (E. coli (ATCC 25922); [4]): 1.79 Log
Log reduction of antimicrobial performance in 100 GSM cotton fabric (E. coli (ATCC 25922); [4]): 1.83 Log
Log reduction of antimicrobial performance in 300 GSM Polyester fabric (E. coli (ATCC 25922); [4]): 1.80 Log
Log reduction of antimicrobial performance in 300 GSM cotton fabric (E. coli (ATCC 25922); [4]): 1.83 Log
Log reduction of antimicrobial performance in 100 GSM Polyester fabric (E. coli (ATCC 25922); [5]): 2.19 Log
Log reduction of antimicrobial performance in 100 GSM cotton fabric (E. coli (ATCC 25922); [5]): 2.17 Log
Log reduction of antimicrobial performance in 300 GSM Polyester fabric (E. coli (ATCC 25922); [5]): 2.20 Log
Log reduction of antimicrobial performance in 300 GSM cotton fabric (E. coli (ATCC 25922); [5]): 2.18 Log
Log reduction of antimicrobial performance in 100 GSM Polyester fabric (E. coli (ATCC 25922); [6]): 2.58 Log
Log reduction of antimicrobial performance in 100 GSM cotton fabric (E. coli (ATCC 25922); [6]): 2.56 Log
Log reduction of antimicrobial performance in 300 GSM Polyester fabric (E. coli (ATCC 25922); [6]): 2.58 Log
Log reduction of antimicrobial performance in 300 GSM cotton fabric (E. coli (ATCC 25922); [6]): 2.57 Log
Log reduction of antimicrobial performance of each active ingredient (E. coli (ATCC 25922); exhaust 80° C., 60 min, dosage 1% o.w.f (test up to 5% o.w.f)): 2.38 Log
Log reduction of antimicrobial performance of each active ingredient (E. coli (ATCC 25922); exhaust 80° C., 60 min, dosage 2% o.w.f): 2.38 Log
Log reduction of antimicrobial performance of each active ingredient (E. coli (ATCC 25922); exhaust 80° C., 60 min, dosage 3% o.w.f): 2.41 Log
Log reduction of antimicrobial performance of each active ingredient (E. coli (ATCC 25922); exhaust 80° C., 60 min, dosage 4% o.w.f): 2.42 Log
Log reduction of antimicrobial performance of each active ingredient (E. coli (ATCC 25922); exhaust 80° C., 60 min, dosage 5% o.w.f): 2.43 Log
Log reduction of antimicrobial performance of each active ingredient (E. coli (ATCC 25922); exhaust 80 ° C., solution dosage 1% o.w.f, process time 10 min): 0.78 Log
Log reduction of antimicrobial performance of each active ingredient (E. coli (ATCC 25922); exhaust 80 ° C., solution dosage 1% o.w.f, process time 20 min): 1.11 Log
Log reduction of antimicrobial performance of each active ingredient (E. coli (ATCC 25922); exhaust 80 ° C., solution dosage 1% o.w.f, process time 30 min): 1.41 Log
Log reduction of antimicrobial performance of each active ingredient (E. coli (ATCC 25922); exhaust 80 ° C., solution dosage 1% o.w.f, process time 40 min): 1.84 Log
Log reduction of antimicrobial performance of each active ingredient (E. coli (ATCC 25922); exhaust 80 ° C., solution dosage 1% o.w.f, process time 50 min): 2.38 Log
Log reduction of antimicrobial performance of each active ingredient (E. coli (ATCC 25922); exhaust 80 ° C., solution dosage 1% o.w.f, process time 60 min): 2.56 Log
Log reduction of antimicrobial performance of each active ingredient (E. coli (ATCC 25922); exhaust 80 ° C., solution dosage 1% o.w.f, process time 70 min): 2.58 Log
Log reduction of antimicrobial performance of each active ingredient (E. coli (ATCC 25922); exhaust 80 ° C., solution dosage 1% o.w.f, process time 80 min): 2.61 Log
Log reduction of antimicrobial performance of each active ingredient (E. coli (ATCC 25922); exhaust 80 ° C., solution dosage 1% o.w.f, process time 90 min): 2.62 Log
Performance Test-Log reduction of antimicrobial performance (E. coli (ATCC 25922); curing 120° C.): 0.05 Log
Performance Test-Log reduction of antimicrobial performance (E. coli (ATCC 25922); curing 140° C.): 0.17 Log
Performance Test-Log reduction of antimicrobial performance (E. coli (ATCC 25922); curing 150° C.): 0.27 Log
Performance Test-Log reduction of antimicrobial performance (E. coli (ATCC 25922); curing 160° C.): 0.57 Log
